Assay results as given in PMC4752590, “Reciprocal effects of capsaicin and menthol on thermosensation through regulated activities of TRPV1 and TRPM8” (The Journal of Physiological Sciences : JPS, 2015).

Experiments:
[1] = biological target: T1, hTRPM8 (transient receptor potential melastatin 8) (Homo sapiens, UniProt Q7Z2W7); assay: whole-cell patch clamp in HEK293T; inhibition of […] menthol-evoked current; assay type: cell-based
T1 construct: gene TRPM8; Full-length

[2] = biological target: T2, hTRPV1 (transient receptor potential vanilloid 1) (Homo sapiens, UniProt Q8NER1); assay: whole-cell patch clamp in HEK293T; inhibition of […] capsaicin-evoked current; assay type: cell-based
T2 construct: gene TRPV1; Full-length
T2 sequence (Q8NER1 whole entry): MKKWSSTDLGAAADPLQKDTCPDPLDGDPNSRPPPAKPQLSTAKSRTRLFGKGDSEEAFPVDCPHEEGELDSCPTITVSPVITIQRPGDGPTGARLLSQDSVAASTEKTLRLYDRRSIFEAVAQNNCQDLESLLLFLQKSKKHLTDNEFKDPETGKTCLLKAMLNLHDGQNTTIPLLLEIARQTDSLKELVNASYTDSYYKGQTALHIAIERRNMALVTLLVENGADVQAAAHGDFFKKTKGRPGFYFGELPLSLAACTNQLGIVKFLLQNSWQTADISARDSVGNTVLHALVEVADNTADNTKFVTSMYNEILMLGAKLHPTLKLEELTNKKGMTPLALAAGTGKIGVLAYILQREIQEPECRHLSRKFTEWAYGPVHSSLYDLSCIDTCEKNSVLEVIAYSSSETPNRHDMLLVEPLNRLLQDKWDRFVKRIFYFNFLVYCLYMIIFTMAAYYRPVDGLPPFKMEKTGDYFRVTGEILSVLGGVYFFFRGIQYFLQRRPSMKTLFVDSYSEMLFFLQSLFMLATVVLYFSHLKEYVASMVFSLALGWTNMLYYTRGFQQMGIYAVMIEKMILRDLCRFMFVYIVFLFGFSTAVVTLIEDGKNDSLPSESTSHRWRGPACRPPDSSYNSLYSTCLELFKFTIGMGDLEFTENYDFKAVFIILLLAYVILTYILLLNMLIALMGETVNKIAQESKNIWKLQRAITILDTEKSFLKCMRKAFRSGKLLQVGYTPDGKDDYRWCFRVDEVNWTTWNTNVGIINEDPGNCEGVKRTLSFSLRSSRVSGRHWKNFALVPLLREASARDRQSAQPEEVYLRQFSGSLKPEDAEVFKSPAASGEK

T1 sequence (Q7Z2W7 whole entry): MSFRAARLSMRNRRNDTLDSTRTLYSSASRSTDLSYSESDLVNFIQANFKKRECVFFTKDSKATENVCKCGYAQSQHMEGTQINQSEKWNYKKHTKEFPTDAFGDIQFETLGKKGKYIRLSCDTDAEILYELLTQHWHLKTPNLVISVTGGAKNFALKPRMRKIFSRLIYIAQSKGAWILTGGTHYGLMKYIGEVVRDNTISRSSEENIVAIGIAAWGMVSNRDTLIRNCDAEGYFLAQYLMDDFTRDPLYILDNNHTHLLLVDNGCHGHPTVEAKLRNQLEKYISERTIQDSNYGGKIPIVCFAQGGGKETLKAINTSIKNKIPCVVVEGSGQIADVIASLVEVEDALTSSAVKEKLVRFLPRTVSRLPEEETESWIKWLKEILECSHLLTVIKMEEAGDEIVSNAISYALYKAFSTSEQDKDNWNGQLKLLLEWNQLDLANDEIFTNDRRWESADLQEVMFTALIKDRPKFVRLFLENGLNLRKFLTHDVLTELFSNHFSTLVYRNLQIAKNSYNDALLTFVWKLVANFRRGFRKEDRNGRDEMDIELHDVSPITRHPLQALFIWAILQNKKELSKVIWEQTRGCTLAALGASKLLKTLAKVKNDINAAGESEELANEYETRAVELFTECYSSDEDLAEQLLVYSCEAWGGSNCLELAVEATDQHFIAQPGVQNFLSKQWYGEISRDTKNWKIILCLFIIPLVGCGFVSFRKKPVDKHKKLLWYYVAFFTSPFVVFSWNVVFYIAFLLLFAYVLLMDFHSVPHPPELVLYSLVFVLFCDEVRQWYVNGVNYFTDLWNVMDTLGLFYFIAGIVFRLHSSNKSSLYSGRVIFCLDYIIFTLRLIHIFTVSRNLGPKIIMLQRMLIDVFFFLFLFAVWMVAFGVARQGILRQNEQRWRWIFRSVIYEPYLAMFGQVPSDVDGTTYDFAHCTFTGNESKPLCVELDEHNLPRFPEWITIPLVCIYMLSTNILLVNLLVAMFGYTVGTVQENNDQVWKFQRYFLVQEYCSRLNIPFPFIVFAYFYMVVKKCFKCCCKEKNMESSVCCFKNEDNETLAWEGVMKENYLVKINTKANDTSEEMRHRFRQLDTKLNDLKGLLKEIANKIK

COc1cc(CNC(=O)CCCC/C=C/C(C)C)ccc1O [capsaicin]
IC50 [1]: 39.9 ± 6.4 µM

CC1CCC(C(C)C)C(O)C1 (centres unmarked) [menthol]
IC50 [2]: 1200 ± 200 µM
